Source: patent US20070014748A1, “Urea compounds that promote desquamation” (L'OREAL, priority 2005, published 2007)

How the values were obtained:
[1] = test system: acid proteases of the SC (stratum corneum); assay: Activating potential on acid proteases of the stratum corneum (Enzchek Bodipyfl-casein fluorimetric assay); assay type: biochemical; details: for acid protease activity compared with the control / duration of the activating effect on acid proteases: 1 and 2 M; for acid protease activity compared with the control: 0.1M acetic buffer pH 5.0, SC enzymatic extract; for duration of the activating effect on acid proteases: readings up to 24 h
Experimental: (§1) Three properties were therefore studied: • The prodesquamating power, by the test of degradation of corneodesmosin in a controlled environment chamber with formulated products containing 5% active agent. […] P According to one of the aspects of the invention, the said compound of formula (I) has a corneodesmosin degrading effect which it stimulates.
The property of activating certain acid proteases of the SC (stratum corneum) is evaluated. The measurement of this activity is carried out by fluorimetric assay with the aid of the Enzchek kit (Molecular Probes). This protocol uses a Bodipyfl-casein substrate which, when hydrolysed, releases fluorescence. The fluorescence released is directly proportional to the protease activity. It is read directly on a 96-well plate in a spectrofluorimeter at 750V at an excitation of 485 nm and an emission of 535 nm.
The results obtained with N-(2-hydroxyethyl)urea (compound according to the invention) are compared with those for urea.
The molecules are prepared at 0, 1, 2 and 4 M in 0.1M acetic buffer; pH 5.0. An enzymatic extract is prepared from acetone powders. 2 ml of PBS buffer +0.1% Triton X100 are brought into contact for 1 h in crushed ice with 200 mg of stratum corneum acetone powders. The mixture is then ground in a potter device and then centrifuged for 10 min at 15 000 g at 4° C. The supernatant is collected. The Enzchek substrate diluted 1/200 is incorporated into each solution containing the molecules. The assays are repeated three times.
The reaction mixture is prepared directly in a white plate. 10 μl of enzymatic extract are added to 200 μl of solution containing the substrate at 0, 1, 2 or 4M. The readings are carried out at t0, 1 2 h, t 16 h and t 24 h.

[2] = test system: keratins and proteins of the SC; assay: "Keratolytic" potential: solubilization of keratins and proteins of the stratum corneum (electrophoresis gel); details: 2M in water +2% CHAPS; room temperature; 12.5% acrylamide gel, silver nitrate staining
Experimental: as §1
Urea is known for its denaturing activity on keratolytic proteins.
30 mg of acetone powders of stratum corneum of the bottom of the legs of volunteers are prepared and brought into contact with 3 ml of water +2% CHAPS (zwitterionic detergent) for 10 min at room temperature. The mixture is then ground in a potter device and centrifuged for 10 min at 15 000 g. The supernatant is removed. This method makes it possible to remove the very soluble keratins and proteins which would interfere with the interpretation of the results. The pellet is taken up in 300 μl of water+CHAPS and 20 μl are distributed into 10 Eppendorf tubes.
Each molecule to be studied is prepared at 2M in water +2% CHAPS.
200 μl of solution are mixed with 20 μl of extract of acetone powders. The assays are carried out in duplicate. A control with no reagent is performed in parallel. The reaction mixtures are incubated for 10 min at room temperature, they are ground in a potter device and then incubated for 50 min at room temperature. They are centrifuged for 10 min at 15 000 g. […]

corneodesmosin = assay: Degradation of corneodesmosin in a controlled environment chamber (varnished strippings, immunoblot); assay type: biochemical; details: for percentages of residual corneodesmosin relative to the control: 5% active agent in base Arlacel/Myrj, 37° C., 70% relative humidity, 5 days, mean of 2 experiments, the lower the percentage, the higher the degradation
Excerpt: as §1
The molecules are formulated in a neutral base Arlacel/Myrj. The products are in contact with varnished strippings under defined temperature, humidity and incubation time conditions. The corneodesmosin is assayed by immunodetection after incubation. It is studied on an immunoblot after electrophoretic separation and transfer onto a membrane. After specific labelling with the antibody G3619, it is visualized by chemiluminescence.
The Hydrovance® product, which is a mixture comprising N-(2-hydroxyethyl)urea marketed by the company National Starch, is compared with urea and with a control.
Rectangles of 3×3.5 cm^2 are cut out in varnished strippings made on the bottom of dry skin legs. They are treated with 42 mg of product (4 mg/cm^2) each. Controls and assays are carried out in parallel. The assays are incubated at 37° C. and 70% relative humidity for 5 days. The controls are kept for 5 days at −20° C. For each of the samples, acetone powders are made and weighed. The proteins are extracted with 100 μl of complete Laemmli buffer. They are assayed according to the Bradford method. The protein level of each sample is adjusted and will allow direct comparison of the various samples.
The proteins are separated by SDS-Page electrophoresis on 12% acrylamide gel. After transferring the proteins onto a PVDF membrane, the immunodetection is carried out with the anti-corneodesmosin antibody G3619 (Guy Serre) at 1/12 500 according to a conventional Western-blot technique. The visualization is performed by chemiluminescence. The bands detected by fluorSmax (Biorad) are quantified with the software quantity-one. […]
The results are expressed as percentages of residual corneodesmosin relative to the control −80° C. […]

SMILES	acid protease activity compared with the control [1]	duration of the activating effect on acid proteases [1]	acid protease activity ([1]; 4M, regardless of the time studied)	degradation of a protein substrate by the acid proteases of the SC ([1]; concentration of 0.5 to 2M, in particular 1M)	solubilization of SC proteins, gel band pattern compared with urea [2]	percentages of residual corneodesmosin relative to the control (corneodesmosin) [%]	prodesquamating effect (corneodesmosin degradation) compared with urea (corneodesmosin; 5% in base Arlacel/Myrj)
NC(=O)NCCO [Hydrovance, N-(2-hydroxyethyl)urea]	large increase in activity	long-lasting	marked decrease in activity	durably stimulates	distinguishable from urea by the appearance of low MW bands	23	slightly higher effect than urea
NC(N)=O [urea]	slightly activating effect	up to two hours after the start of incubation				30	
